Measured values reported in patent US20230293521A1, “METHODS FOR SCREENING NOVEL CORONAVIRUS ANTIVIRALS AND METHODS OF USING ANTIVIRALS FOR THE TREATMENT OF CORONAVIRUS INFECTIONS” (priority 2020, published 2023).
Read-outs that look alike come from different tables or passages of the source.

Tested on: SARS-CoV-2
Assay: Impedance-based (Maestro Z resistance/TEER) assay of SARS-CoV-2 cytopathic effect in Vero E6 monolayers
Assay type: cell-based
Settings: for IC90: Vero E6, MOI 0.01, normalized resistance at 48 hpi; for IC50: Vero E6, pre-treated 1 hour, MOI 0.01, normalized resistance at 48 hpi; for inhibitory activity against SARS-CoV-2 (percent inhibition relative to DMSO control): Vero E6, serial half-log dilutions, MOI 0.01, 48 hours
[1] = Severe acute respiratory syndrome coronavirus 2, Vero C1008
[2] = Severe acute respiratory syndrome coronavirus 2, Vero C1008, non-toxic doses, read-out: estimated IC50

SMILES: Nc1ncc(-c2ccnc(Nc3ccncc3)n2)c(CC2CC2)n1 [PIK-III]
- IC90 [1]: 1810 nM
- IC50 [2]: < 600 nM

SMILES: CC1(C)Oc2ncnc(N)c2N=C1c1ccc([C@H]2CC[C@H](CC(=O)O)CC2)cc1 [T863]
- inhibitory activity against SARS-CoV-2 (percent inhibition relative to DMSO control): Neither compound displayed any inhibitory activity

SMILES: CCCCCCCCCCC[C@@H](C[C@@H]1OC(=O)[C@H]1CCCCCC)OC(=O)[C@H](CC(C)C)NC=O [Orlistat]
- completeness of inhibition of viral cytopathic effects (with 500 µM, Vero E6): complete inhibition was not achieved

SMILES: CC(C)(O)CNc1ncc(-c2ccnc(Nc3ccncc3)n2)c(CC2CC2)n1 [VPS34-IN1]
- IC90 [1]: 2520 nM
- IC50 [2]: < 600 nM

SMILES: CCC/C=C/C/C=C/C=C/C=N/NN=O [Triacsin C]
- IC50 (read-out: 50% inhibitory concentration (IC50)): ~20000 nM

SMILES: CS(=O)(=O)O.O=C([C@@H]1CCCN(c2ccc3[nH]c(C4(n5cc(Cl)cn5)CC4)nc3n2)C1)N1CCCC1 [PF06424439]
- inhibitory activity against SARS-CoV-2 (percent inhibition relative to DMSO control): Neither compound displayed any inhibitory activity

SMILES: CCC(CC)COC(=O)[C@H](C)N[P@](=O)(OC[C@H]1O[C@@](C#N)(c2ccc3c(N)ncnn23)[C@H](O)[C@@H]1O)Oc1ccccc1 [Remdesivir]
- IC50 (Severe acute respiratory syndrome coronavirus 2, Vero C1008, read-out: 50% inhibitory concentration (IC50)): 1540 nM
